Columns and labels:
[1] = test system: C4-2 cells; test: Flow cytometry analysis of cell cycle; assay type: cell-based, human; settings: CaP cells (C4-2); with a decrease in the S phase
Experimental: (§1) Cells were then rinsed in PBS, pelleted at 400 g for 5 min and maintained on ice for 20 min before resuspension in a […] propidium iodide (Sigma) solution. Cells were kept overnight at 4° C. and the percentages of cells in G1, S and G2-M phases of the cell cycle were measured with a Coulter Epics XL™ flow cytometer (Becton Dickinson) using 488-nm laser excitation. For apoptosis experiment, MEFs were treated with the tested compound at 25 μM for 24 h, then rinced in PBS, pelleted at 400 g for 5 min and stained with annexinV-FITC (Roche Diagnostics, Meylan, France) for 15 min at 4° C. The percentage of annexin positive cells was immediately analysed using 488-nm laser excitation.

[2] = test system: LNCaP cells; test: Flow cytometry analysis of cell cycle; assay type: cell-based, human; settings: CaP cells (LNCaP); with a decrease in the S phase
Experimental: as §1

[3] = test system: β-catenin-Tcf4 complex in C4-2 cells; test: TCF/LEF-1 reporter (pTOP-FLASH) luciferase assay; assay type: cell-based, human
Experimental: (§2) The transcriptional activity of the β-catenin-Tcf4 complex was analysed by performing transient transfections with 0.25 μg TCF/LEF-1 reporter (pTOP-FLASH) or control vector (pFOP-FLASH).
(§3) Luciferase activities in cell lysates were normalized relative to the β-galactosidase activity to correct for differences in transfection efficiency.

[4] = test system: β-catenin-Tcf4 complex in LNCaP cells; test: TCF/LEF-1 reporter (pTOP-FLASH) luciferase assay; assay type: cell-based, human
Experimental: as §2, §3

[5] = test system: C4-2 cells; test: Human WNT Signaling Pathway PCR Array; assay type: cell-based; settings: C4-2, 25 μM
Experimental: C4-2 cells treated with the compound tested at 25 μM were analysed for the expression profiles of 84 genes related to Wnt-mediated signal transduction by using Human WNT Signaling Pathway PCR Array according to the manufacturers' recommendations (Tebu-Bio, Le Perray en Yvelines, France). The relative content of cDNA samples was normalized with the endogenous β2M, HPRT1, RPL13 and GAPDH reference genes, and the relative mRNA level was calculated according to the formula 2^−(ΔCt). Values are expressed as the fold change in relative mRNA level following treatment of cells with the tested compound at 25 μM, as compared to control.

[6] = test system: C4-2 tumor xenografts; test: Subcutaneous xenograft, curative treatment; assay type: in vivo, mice
Experimental: (§4) Male athymic nude Mice (Foxn1 nu/nu) (Harlan, Grannat, France) were used at the age of 7 weeks (weight 25-30 g). All procedures were performed in compliance with the European Convention for the Protection of Vertebrate Animals Used for Experimentation (animal house agreement # B-34-172-27, authorization for animal experimentation #34.324). Experiments were done at least twice for each tested condition. Animals were sacrificed before they became compromised. Xenografts were established by subcutaneously injecting 2×10^6 LNCaP cells, 2×10^6 C4-2 cells or 5×10^5 MEFs SV40 in 100 μl of a Matrigel solution. For curative experiments, tumors were allowed to growth until they were measurable with a caliper. In each group, the mice were randomized and given SCD-1 inhibitor at 80 mg/kg in 100 μl of a labrafil-DMA-tween^80 solution (89:10:1) (treated group) or vehicle alone (control group), by daily intra-peritoneal (i.p.) injection 5 days of week. For preventive experiments, the mice were treated daily for 7 days before the day of xenograft. Tumor volume measurements were taken twice to three times a week and calculated according to the formula: length×width×height×0.5236. Data are expressed as the mean tumor volume or as fold of the start point tumor volume. For survival analysis, animals bearing pre-established C4-2 tumors were treated with BZ36 at 80 mg/kg or 160 mg/kg or with vehicle by daily i.p. injection 5 days of week. All mice were monitored for survival until tumor volume had reached 2000 mm^3 or until death. Analysis of survival was conducted by a log-rank test based on the Kaplan-Meier method. At euthanasia, tumors were excised and fixed in 4% formalin for immunohistological analyses.
(§5) Immunohistochemical analysis of SCD-1 expression was performed using high-density Tissue Microarray (TMA) slide (Accumax array) with 39 prostate adenocarcinoma spots from different patients (Gleason scores from 5 to 9) with corresponding normal tissues. Immunohistochemical analysis of pcna expression was performed on […] paraffin-embedded sections of LNCaP, C4-2 of Ras SV40 MEFs tumor xenografts. Briefly, after antigen retrieval, deparaffinized sections were blocked of Fc receptors with PBS containing 5% goat serum and then incubated with corresponding anti-SCD-1 mouse antibody, 1:50 (Abcam, Paris, France) or anti-pcna mouse antibody, 1:50 (Santa Cruz) in PBS-Tween 0.1%, overnight at 4° C. […] Sections were counterstained with Mayer's hematoxylin. […] Sections were mounted in mowiol and analysed rapidly.

[7] = test system: LNCaP tumor xenografts; test: Subcutaneous xenograft, curative treatment; assay type: in vivo, mice
Experimental: as §4, §5

[8] = test system: C4-2 tumors; test: Survival analysis of mice with pre-established C4-2 tumors; assay type: in vivo; settings: for animals surviving at 14 days of treatment: control group 37.5%
Experimental: as §4

[9] = Toxicity in nude mice after daily i.p. injection; assay type: in vivo
Experimental: as §4, with “For survival analysis, animals bearing pre-established C4-2 tumors were treated with BZ36 at 80 mg/kg or 160 mg/kg or with vehicle by daily i.p. injection 5 days of week.” left out, “Analysis of survival was conducted by a log-rank test based on the Kaplan-Meier method. At euthanasia, tumors were excised and fixed in 4% formalin for immunohistological analyses.” left out

[10] = test system: MEFs transformed by HaRasV12 and SV40 Large T; test: Proliferation of MEFs; assay type: cell-based, mouse
Experimental: (§6) Primary MEFs were obtained from embryos at embryonic day 13.5 by standard methods.
(§7) Monolayer cell cultures were grown in Dulbecco's Modified Eagle's Medium (DMEM) supplemented with 25 mM glucose and 10% FCS.
(§8) At 24 h, 48 h, 72 h and 96 h following addition of increasing concentrations of the tested compound in DMSO or DMSO alone, cells were trypsinized, pelleted by centrifugation at 1200 rpm for 5 min, resuspended in 500 μl of culture medium and counted in an hemocytometer.

[11] = test system: normal MEFs (WT); test: Proliferation of MEFs; assay type: cell-based, mouse; settings: slowly growing normal MEFs (WT)
Experimental: as §6, §7, §8

[12] = test system: transformed MEFs; test: Apoptosis, annexinV-FITC flow cytometry; assay type: cell-based, mouse; settings: all transformed cells, 25 μM, 24 h
Experimental: as §1

[13] = test system: ras SV40 MEFs tumors; test: ras SV40 MEFs xenograft, curative and preventive; assay type: in vivo, mice
Experimental: as §4
Immunohistochemical analysis of SCD-1 expression was performed using high-density Tissue Microarray (TMA) slide (Accumax array) with 39 prostate adenocarcinoma spots from different patients (Gleason scores from 5 to 9) with corresponding normal tissues. […] Sections were mounted in mowiol and analysed rapidly.

COc1ccc(Br)c(C(=O)N2CCN(c3ccc(C(=O)NCCCc4ccccc4)cn3)CC2)c1 [BZ36]
cell cycle distribution [1]: accumulation of cells in the G0/G1 phase | cell cycle distribution [2]: accumulation of cells in the G0/G1 phase | activity of a β-cat reporter [3]: decreased activity | activity of a β-cat reporter [4]: decreased activity | expression of genes in the β-cat pathway (frizzled family, cyclin D1, D2, D3, myc, c-jun, Wnt family members) [5]: decreased expression | mice with tumor volume increased more than 4-fold ([6]; C4-2, 80 mg/kg, 42% of vehicle-treated mice): 12% | xenografted mice with tumor regression ([6]; C4-2, 80 mg/kg, no regression in control mice): 19% | tumor volume and tumor growth rate ([6]; C4-2 xenograft, 80 mg/kg i.p., vs vehicle): significantly reduced | decrease of proliferative tumor cells (PCNA immunostaining) ([6]; C4-2 xenografts, 80 mg/kg, vs control animals): 41% | tumor volume and tumor growth rate ([7]; LNCaP xenograft, 80 mg/kg i.p., vs vehicle): significantly reduced | decrease of proliferative tumor cells (PCNA immunostaining) ([7]; LNCaP xenografts, 80 mg/kg, vs control animals): 50% | mice with tumor volume increased more than 4-fold ([7]; LNCaP, 80 mg/kg, 42% of vehicle-treated mice): 18% | xenografted mice with tumor regression ([7]; LNCaP, 80 mg/kg, no regression in control mice): 27% | animal survival in comparison to vehicle control ([8]; 80 mg/kg or 160 mg/kg, p=0.038): significant and dose-dependant prolongation | animals surviving at 14 days of treatment ([8]; 80 mg/kg): 75% | median survival ([8]; 80 mg/kg, control group 14 days): 21 days | animals surviving at 28 days of treatment ([8]; 160 mg/kg, control group 12.5%): 75% | animals surviving at 14 days of treatment ([8]; 160 mg/kg): 100% | histological examination of liver and skin [9]: absence of toxicity | weight loss or other toxicity [9]: no significant weight loss or other toxicity | proliferation index [10]: strongly decreased | proliferation index [11]: only moderately reduced | cell death (annexin V-positive cells) [12]: strong induction of cell death | ras SV40 MEFs tumors growth ([13]; curative, from day 2, maintained along 12 days, vs vehicle): significantly prevented | mice with tumors five days after cells were grafted ([13]; pre-treatment one week prior to graft, almost all vehicle treated mice developed tumors): 50% | decrease of proliferative tumor cells (PCNA immunostaining) ([13]; ras SV40 MEFs xenografts, vs vehicle-treated mice): 61%
